# Results reported in patent US12365684B2, “Short-acting benzodiazepine salts and their polymorphic forms” (priority 2006, dated 2025).
# Several values for one entry are separate records, joined by “and”; a condition that tells them apart may be missing. Equal entries are not always repeated. Where two headings read alike, the source gives them in different places.
# Columns and labels:
# [1] = Gravimetric Vapour Sorption (GVS); assay type: physicochemical; conditions: 25° C., 0-90% RH range
# Procedure: All samples were run on a Hiden IGASorp moisture sorption analyser running CFRSorp software. Sample sizes were typically 10 mg. A moisture adsorption desorption isotherm was performed as outlined below (2 scans giving 1 complete cycle). All samples were loaded/unloaded at typical room humidity and temperature (40% RH, 25° C.). All samples were analysed by XRPD post GVS analysis. The standard isotherm was performed at 25° C. at 10% RH intervals over a 0-90% RH range unless otherwise stated.
# [2] = Thermodynamic aqueous solubility; assay type: physicochemical; conditions: water, 25° C., 24 hrs
# Procedure: This was measured by suspending sufficient compound in 0.25 ml of solvent (water) to give a maximum final concentration of 10 mg/ml of the parent free form of the compound. The suspension was equilibrated at 25° C. for 24 hrs followed by a pH check and filtration through a glass fibre C 96 well plate. The filtrate is then diluted down 101x. Quantitation was by HPLC with reference to a standard dissolved in DMSO at approx 0.1 mg/ml. Different volumes of the standard, diluted and undiluted tests were injected. The solubility was calculated by integration of the peak area found at the same retention time as the peak maximum in the standard injection. If there is sufficient solid in the filter plate the XRPD is normally checked for phase changes, hydrate formation, amorphization, crystallization etc.
# [3] = Polymorphism maturation experiment (solvent slurries), HPLC purity post 1 week; assay type: physicochemical; conditions: heat/cool cycle ambient to 60° C., starting hplc purity 97.7%
# Procedure: The solid was slurried in various solvents (see Table 11) for one week on a heat/cool cycle from ambient to 60° C. After one week the slurries were evaporated and the solids analysed by XRPD and HPLC.
# • Method: Gradient, Reverse Phase • Method Duration/min: 34 • Column: Phenomenex Gemini C18 5 μm (2.0×50 mm) (Guard cartridge Phenomenex Gemini C18 guard cartridge 2×4 mm) • Column Temperature/° C.: 40 • Injection/μl: 5 • Flow Rate ml/min: 0.8 • Detection: UV • Wavelength/nm: 255 (bandwidth of 90 nm), 240 (bandwidth of 80 nm), 254 (bandwidth of 8 nm) • Phase A: 2 mmol NH4HCO3 (adjusted to pH10 with NH3 solution) Phase B: acetonitrile Timetable: […]
# mice = experiment: Anaesthetic and sedative effects: loss of the righting reflex (LRR) after i.v. administration; assay type: in vivo; conditions: for NUMBER OF MICE WITH LRR: eight mice per group; for LRR DURATION, mean: maximum = 90 minutes after injection
# Procedure: The anaesthetic and sedative effects of the besylate salt Form 1 of the present invention was evaluated. The besylate (benzenesulfonic acid) salt was dissolved in physiological saline for administration of the test composition to the animal. The test composition was administered to mice, placed in individual Plexiglas cages (20×10×10 cm). Mice were injected with either vehicle or test substance by the intravenous route. The latency to sleep and the duration of anaesthesia (maximum: 90 minutes after test-substance administration) were recorded. Anaesthesia is indicated by loss of the righting reflex (LRR). The righting reflex test was performed as soon as the animals appear sedated, approximately every 20-30 seconds. Once the righting reflex is absent, duration of loss of righting reflex was measured by testing for the return of the righting reflex approximately every 20-30 seconds thereafter. Eight mice were studied per group and the test was performed blind.
# [4] = Observed solubility of compound of formula (I) besylate in solvents; assay type: physicochemical; conditions: approximate
# Text: The compound also has an excess of Hydrogen bond acceptors and therefore will be suitably partnered by Hydrogen bond donating solvents. It is thus expected that the compound will prefer solubilisation in a range of polar organic solvents such as the alcohols, particularly those which provide a partially lipophillic, Hydrogen bond donating environment. This has been borne out by experimental evidence (details of solvents used are given in Example 8):
# Values quoted are approximate, but experimentally confirmed.
# [5] = Solid-state stability study of compound of formula (I) (appearance, HPLC content); assay type: physicochemical
# Procedure: Method/Technique. 2 mg samples of compound of formula (I), accurately weighed, were placed in 4-mL clear glass screw-cap vials. Samples were tested at initial and after 34 days stored at 5° C./Ambient Relative Humidity (AMRH) Closed, 30° C./60% RH Closed, 40° C./75% RH Open and 60° C./AMRH Closed.
# [6] = pKa determination (potentiometric titration, Sirius GlpKa); assay type: physicochemical; conditions: MeOH:H2O mixtures, MeOH:H2O mixtures at 25° C., extrapolated to 0% co-solvent
# Procedure: pka determination was performed on a Sirius GlpKa instrument with D-PAS attachment. Measurements were made by potentiometric titration in MeOH:H2O mixtures at 25° C. The titration media was ionic strength adjusted with 0.15M KCl. The values found in the MeOH:H2O mixtures were extrapolated to 0% co-solvent via a Yasuda-Shedlovsky extrapolation.
structure (smiles),measurement,setting,value
COC(=O)CC[C@@H]1N=C(c2ccccn2)c2cc(Br)ccc2-n2c(C)cnc21.O=S(=O)(O)c1ccccc1 [besylate Form 1],GVS uptake,[1],2.0%
same,solubility,[2],8.3 mg/mL
same,HPLC purity post 1 week,"[3]; slurried in 1,4-Dioxane",97.2 % area
same,HPLC purity post 1 week,"[3]; slurried in 2.5% aq 1,4-Dioxane",86 % area
same,HPLC purity post 1 week,[3]; slurried in 2.5% aq DCM,97.4 % area
same,HPLC purity post 1 week,[3]; slurried in 2.5% aq IPA,76.1 % area
same,HPLC purity post 1 week,[3]; slurried in 2.5% aq MEK,93.9 % area
same,HPLC purity post 1 week,[3]; slurried in 2.5% aq MIBK,97.3 % area
same,HPLC purity post 1 week,[3]; slurried in 2.5% aq MeCN,93.3 % area
same,HPLC purity post 1 week,[3]; slurried in 2.5% aq THF,93.3 % area
same,HPLC purity post 1 week,[3]; slurried in 2.5% aq acetone,96.8 % area
same,HPLC purity post 1 week,[3]; slurried in DCM,97.4 % area
same,HPLC purity post 1 week,[3]; slurried in IPA,97.1 % area
same,HPLC purity post 1 week,[3]; slurried in MEK,97.2 % area
same,HPLC purity post 1 week,[3]; slurried in MIBK,97.7 % area
same,HPLC purity post 1 week,[3]; slurried in MeCN,94.3 % area
same,HPLC purity post 1 week,[3]; slurried in MtBE,97.7 % area
same,HPLC purity post 1 week,[3]; slurried in THF,97.6 % area
same,HPLC purity post 1 week,[3]; slurried in acetone,97.5 % area
same,HPLC purity post 1 week,[3]; slurried in iPrOAc,97.5 % area
same,NUMBER OF MICE WITH LRR,mice; 20.4 mg/kg i.v.,2
same,"LRR DURATION, mean",mice; 20.4 mg/kg i.v.,1.7 min
same,"LATENCY TO LRR, mean ± s.e.m.",mice; 27.2 mg/kg i.v.,3.0 ± 0.2 min
same,NUMBER OF MICE WITH LRR,mice; 27.2 mg/kg i.v.,5+
same,"LRR DURATION, mean",mice; 27.2 mg/kg i.v.,4.9 min
same,"LATENCY TO LRR, mean ± s.e.m.",mice; 34 mg/kg i.v.,1.8 ± 0.2 min
same,NUMBER OF MICE WITH LRR,mice; 34 mg/kg i.v.,6++
same,"LRR DURATION, mean",mice; 34 mg/kg i.v.,6.0 min
same,"LATENCY TO LRR, mean ± s.e.m.",mice; 40.8 mg/kg i.v.,1.6 ± 0.5 min
same,NUMBER OF MICE WITH LRR,mice; 40.8 mg/kg i.v.,6++
same,"LRR DURATION, mean",mice; 40.8 mg/kg i.v.,7.3 min
COC(=O)CC[C@@H]1N=C(c2ccccn2)c2cc(Br)ccc2-n2c(C)cnc21.O=S(=O)(O)c1ccccc1 [compound of formula (I) besylate],solubility,[4]; Water,2 mg/mL
same,solubility,"[4]; organic solvent or mixture, 1,2-ethanediol",60 mg/mL
same,solubility,"[4]; organic solvent or mixture, 1,4-dioxan",1 mg/mL
same,solubility,"[4]; organic solvent or mixture, 2,2,2-trifluoroethanol",1000 mg/mL
same,solubility,"[4]; organic solvent or mixture, 2-ethoxyethanol",20 mg/mL
same,solubility,"[4]; organic solvent or mixture, 2-methoxyethanol",167 mg/mL
same,solubility,"[4]; organic solvent or mixture, Acetone",2 mg/mL
same,solubility,"[4]; organic solvent or mixture, Acetonitrile",> 20 mg/mL
same,solubility,"[4]; organic solvent or mixture, Chloroform",< 0.4 mg/mL
same,solubility,"[4]; organic solvent or mixture, Dichloromethane",< 0.3 mg/mL
same,solubility,"[4]; organic solvent or mixture, Dimethyl sulfoxide",500 mg/mL
same,solubility,"[4]; organic solvent or mixture, Dimethylacetamide",200 mg/mL
same,solubility,"[4]; organic solvent or mixture, Dimethylformamide",300 mg/mL
same,solubility,"[4]; organic solvent or mixture, Ethanol",100 mg/mL
same,solubility,"[4]; organic solvent or mixture, Ethyl acetate",0.2 mg/mL
same,solubility,"[4]; organic solvent or mixture, Formamide",350 mg/mL
same,solubility,"[4]; organic solvent or mixture, Hexafluoropropan-2-ol",> 700 mg/mL
same,solubility,"[4]; organic solvent or mixture, Methanol",400 mg/mL
same,solubility,"[4]; organic solvent or mixture, Methylbenzoate",2 mg/mL
same,solubility,"[4]; organic solvent or mixture, Propan-1-ol",15 mg/mL
same,solubility,"[4]; organic solvent or mixture, Propan-2-ol",4.8 mg/mL
same,solubility,"[4]; organic solvent or mixture, Tetrahydrofuran",2.5 mg/mL
"COC(=O)CC[C@@H]1N=C(c2ccccn2)c2cc(Br)ccc2-n2c(C)cnc21 [compound of formula (I), Methyl 3-[(4S)-8-bromo-1-methyl-6-(2-pyridinyl)-4H-imidazol [1,2-a][1,4]benzodiazepin-4-yl]propanoate]",% Relative to Avg. Initial % area,"[5]; 5 C./AMRH Closed, 34 days",100.52%
same,Appearance,"[5]; 5 C./AMRH Closed, 34 days",Cream to light yellow powder
same,Compound of Formula (I) Content % area,"[5]; 5 C./AMRH Closed, 34 days",95.30 % area
same,Compound of Formula (I) Content % w/w,"[5]; 5 C./AMRH Closed, 34 days",102.6 % w/w
same,% Relative to Avg. Initial % area,"[5]; 30 C./60% RH Closed, 34 days",99.36%
same,Appearance,"[5]; 30 C./60% RH Closed, 34 days",Cream to light yellow powder
same,Compound of Formula (I) Content % area,"[5]; 30 C./60% RH Closed, 34 days",94.20 % area
same,Compound of Formula (I) Content % w/w,"[5]; 30 C./60% RH Closed, 34 days",94.7 % w/w
same,drop in content relative to the initial % area,"[5]; 30° C./60% RH Closed, 34 days",approximately 0.6%
same,% Relative to Avg. Initial % area,"[5]; 40 C./75% RH Open, 34 days",98.57% and 98.50%
same,Compound of Formula (I) Content % area,"[5]; 40 C./75% RH Open, 34 days",93.45 % area and 93.39 % area
same,Compound of Formula (I) Content % w/w,"[5]; 40 C./75% RH Open, 34 days",105.4 % w/w and 100.3 % w/w
same,% Relative to Avg. Initial % area,"[5]; 60 C./AMRH Closed, 34 days",92.57%
same,Compound of Formula (I) Content % area,"[5]; 60 C./AMRH Closed, 34 days",87.77 % area
same,Compound of Formula (I) Content % w/w,"[5]; 60 C./AMRH Closed, 34 days",93.4 % w/w and 91.1 % w/w
same,decrease of average % w/w content from the initial value,[5]; 34 days at 60° C./AMRH Closed,10 % w/w
same,Appearance,"[5]; RT, initial",Cream to light yellow powder
same,Compound of Formula (I) Content % area,"[5]; RT, initial",95.14 % area and 94.47 % area
same,Compound of Formula (I) Content % w/w,"[5]; RT, initial",100.5 % w/w and 104.1 % w/w
same,Avg. Initial % area,"[5]; RT, initial, average of two samples",Avg = 94.81 % area
same,time stable with respect to appearance and content,[5]; stored at 5° C./AMRH Closed,at least 34 days
same,pKa,[6]; read-out: pKa of the basic centre of the imidazole ring,~5
same,pKa,[6]; read-out: pKa of the basic centre of the pyridine ring,~2
